Reference: US5594012A, “Amino acid derivatives and anti-active oxygen agents” (Ajinomoto Co., Inc., priority 1992, dated 1997)
Where a name gives a salt, the structure may show the parent alone.

What was measured:
hydroxyl radical [1] = assay: Inhibitory effects on hydroxyl radical formation (1) (xanthine/xanthine oxidase, deoxyribose); format: biochemical; details: 360 μM test compound; 36 μM ammonium iron (III) sulphate; xanthine oxidase 0.7 unit/ml; 37° C., 15 minutes; pH 7.4 to 7.8
Protocol: Test for Inhibitory Effects on Hydroxyl Radical Formation (1)
The test was carried out in accordance with the method described in FEBS Letters, Vol. 128, page 347, 1981. Namely, to 1.1 ml of a solution of 54 mM sodium chloride in 9 mM phosphate buffer (hereinafter referred to as "PBS-I") were successively added 140 μl of a solution of each of the test compounds shown in Table 6 below in PBS-1, […] of a 1 mM solution of ammonium iron (III) sulphate in hydrochloric acid, 140 μl of a solution of xanthine (manufactured by Tokyo Kasei Co.) in PBS-1, 14 μl a solution of deoxyribose (Sigma) in PBS-1 and xanthine oxidase (Sigma). The final concentrations of the test compounds, ammonium iron (III) sulphate, xanthine, deoxyribose and xanthine oxidase were adjusted to be 360 μM, 36 μM, 70 μM, 700 μM and 0.7 unit/ml, respectively. If test compounds were not soluble in PBS-1 alone, aqueous sodium hydroxide solution or DMSO was added. The pH of the solution was adjusted to 7.4 to 7.8.
. The percent inhibition of the hydroxyl radical was calculated from the following equation (2) and the results are shown in Table 6. [formula] F1 : Intensity of fluorescence when a test compound was added. F2 : Intensity of fluorescence when a test compound was added but deoxyribose was not added.
F3 : Intensity of fluorescence when a test compound was not added.
F4 : Intensity of fluorescence when neither test compound nor deoxyribose was added.

UV absorptive activities = format: physicochemical; details: 100 μM in ethanol (water or DMSO added if not soluble); for Maximum molar extinction coefficient: UVA and UVB regions
Protocol: Test for UV Absorptive Activities
A solution of each of the test compounds shown in Table 10 below in ethanol was prepared for the final concentration to be 100 μM. If test compounds were not soluble in ethanol alone, water or DMSO was added.
The absorption spectrum of each sample was determined using a spectrophotometer "Model 320" (manufactured by Hitachi).

[2] = system: lipid peroxidation in murine brain homogenate; assay: Inhibitory effects on metal ion-induced lipid peroxidation (murine brain homogenate); format: biochemical, murine (C57 black mouse); details: 1 mM test compound; 100 μM ammonium iron (II) sulphate; 37° C., 30 minutes; pH 7.2 to 7.8
Protocol: Test for Inhibitory Effects on Metal Ion-induced Lipid Peroxidation
(§1) The test was carried out according to the method described in Method in Enzymol., Vol. 52, page 302, 1978. A C57 black mouse was killed by cervical dislocation, and the whole brain extracted from the dissected head was washed with 20 mM phosphate buffer (hereinafter referred to as "PBS-2"). Then, the brain was added with PBS-2 in an amount of 19 times its wet weight, and the mixture was disrupted and homogenized with a homogenizer "Polytron" (manufactured by Kinematica). The thus prepared 5% solution of the murine brain homogenate in PBS-2 was diluted 1:5 with fresh PBS-2. To 800 μl of the resulting 1% solution of the murine brain homogenate in PBS-2 (protein content: 0.8 to 1.0 mg/ml) were successively added 100 μl of a PBS-2 solution of each of the test compounds shown in Table 7 below and 100 μl of an aqueous solution of ammonium iron (II) sulphate. The final concentration of the test compounds and ammonium iron (II) sulphate were adjusted to be 1 mM and 100 μM, respectively. If test compounds were not soluble in PBS-2 alone, an aqueous sodium hydroxide solution or DMSO was added. The pH of the solution was adjusted to 7.2 to 7.8.
The solution after heated at 37° C. for 30 minutes was added with 2.0 ml of an aqueous solution of thiobarbituric acid/trichloroacetic acid/hydrochloric acid, and the mixture was heated in a boiling water bath for 15 minutes. After ice-cooling, the solution was extracted with 1.0 ml of 1-butanol to prepare a sample for determining the peroxide lipid in the same way as described in Test Example 1.
(§2) [formula] A1 : Absorbance when a test compound was added. A2 : Absorbance when a test compound was not added.
A3 : Absorbance when a test compound was not added and heating at 37° C. for 30 minutes was not carried out.

hydroxyl radical [3] = assay: Inhibitory effects on hydroxyl radical formation (2) (iron (II)/hydrogen peroxide, DMPO, ESR); format: biochemical; details: 306 μM test compound; 306 μM iron (II) sulphate; 75 mM DMPO; 306 μM hydrogen peroxide; ESR within 40 seconds
Protocol: Test for Inhibitory Effects on Hydroxyl Radical Formation (2)
To 75 μl of a solution of each of the test compounds shown in Table 9 below in 0.1M phosphate buffer (hereinafter referred to as "PBS-3") were successively added 75 μl of an aqueous solution of iron (II) sulphate, 20 μl of an aqueous solution of 5,5-dimethyl-1-pyrroline-N-oxide "DMPO" (manufactured by Dojin Chemical) and 75 μl of an aqueous solution of hydrogen peroxide. […] If test compounds were not soluble in PBS-3 alone, an aqueous sodium hydroxide solution or N,N-dimethyl formamide was added.
This solution was subjected to determination for the hydroxy radical immediately (within 40 seconds), using an electron spin resonance (ESR) meter "JES-FR80S" (manufactured by Nippon Denshi).
[formula] E1 : Signal magnitude when a test compound was added. E2 : Signal magnitude when a test compound was not added.

[4] = system: lipid peroxidation in murine brain homogenate; assay: Inhibitory effects on lipid peroxidation (murine brain homogenate); format: biochemical, murine (C57 black mouse); details: 30 μM test compound; no added iron; 37° C., 60 minutes; pH 7.2 to 7.8
Protocol: as §1
Test for Inhibitory Effects on Lipid Peroxidation
To 900 μl of a 5% solution of the murine brain homogenate in PBS-2 prepared in the same way as described in Test Example 3 was added 100 μl of a PBS-2 solution of each of the test compounds shown in Table 8 below. The final concentration of the test compounds was adjusted to be 30 μM. If test compounds were not soluble in PBS-2 alone, an aqueous solution of sodium hydroxide or DMSO was added. The pH of the solution was adjusted to 7.2 to 7.8.
The solution after heated at 37° C. for 60 minutes was added with 1.0 ml of an aqeuous solution of thiobarbituric acid/trichloroacetic acid/hydrochloric acid, and the mixture was heated in a boiling water bath for 15 minutes. After ice-cooling, the solution was extracted with 2.0 ml of 1-butanol to prepare a sample for determining the lipid peroxide in the same way as described in Test Example 1. […] [formula] A4 : Absorbance when a test compound was added. A5 : Absorbance when a test compound was not added.
A6 : Abosrbance when a test compound was not added and heating at 37° C. for […] was not carried out.

[5] = system: lipid peroxidation in homogenate of murine swiss 3T3 cells; assay: Inhibitory effects on UV-induced lipid peroxidation (homogenate of murine swiss 3T3 cells); format: biochemical; details: 1 mM test compound; UVB 0.4 mW/cm^2, 90 min; pH 7.2 to 7.8; TBA, 535 nm
Protocol: Test for Inhibitory Effects on UV-induced Lipid Peroxidation
The test was carried out on the basis of the methods described in Biochim. Biophys. […] Namely, 12 μl of an aqueous sodium hydroxide solution of each of the test compounds shown in Table 5 below was added to 1.2 ml of a homogenate of murine swiss 3T3 cells (i.e. a kind of murine skin cells) prepared by a conventional method in 20 mM phosphate buffer (protein content: 1.5 to 1.8 mg/ml). The final concentration of the test compounds was adjusted to be 1 mM and the pH of the solution was adjusted to 7.2 to 7.8. If test compounds were not soluble in an aqueous sodium hydroxide solution, they were dissolved in N,N-dimethyl sulfoxide (DMSO).
This solution (1.1 ml) was irradiated with UV rays (0.4 mW/cm^2, 90 min.) using a UVB lamp "EB-280C/J" (manufactured by Spectronics). To an aliquot (1.0 ml) of this solution were successively added 0.2 ml of an aqueous solution of sodium dodecyl sulfate and 1.0 ml of an aqueous solution of thiobarbituric acid/trichloroacetic acid/hydrochloric acid, and the mixed solution was heated in a boiling water bath for 15 minutes. After ice-cooling, the solution was extracted with 1.0 ml of 1-butanol to prepare a sample for determining peroxide lipid as absorbance at a wavelength of 535 nm using a spectrophotometer "Model 320" (manufactured by Hitachi).
as §2
A3 : Absorbance when a test compound was not added and UV rays were not irradiated.

Compound | % Inhibition of hydroxyl radical (hydroxyl radical [1]) | Wavelength (nm) of maximum absorption (UV absorptive activities) | Maximum molar extinction coefficient (UV absorptive activities) | % Inhibition of metal ion-induced lipid peroxidation [2] | % Inhibition of hydroxy radicals (hydroxyl radical [3]) | % Inhibition of lipid peroxidation [4] | % Inhibition of UV-induced lipid peroxidation [5]
Cc1ncc(CO)c(C=N[C@@H](Cc2c[nH]cn2)C(=O)O)c1O [Synthesis Example 68, N-pyridoxilidene-L-histidine-sodium salt] | 15% | 291 nm | 4,300 | 15% | 10% |  | 
O=C(O)C(CO)N=Cc1c(O)ccc2ccccc12 (stereo not shown) [Synthesis Example 28] | 19% | 307 nm | 10,000 | 80% | 56% | 70% | 20%
O=C(O)[C@H](Cc1c[nH]cn1)NCc1ccccc1O [Synthesis Example 1, N-(2-hydroxybenzyl)-L-histidine] | 29% |  |  | 26% | 27% | 53% | 40%

More lines, main results first:

% Inhibition of hydroxyl radical (hydroxyl radical [1]) | Wavelength (nm) of maximum absorption (UV absorptive activities) | Maximum molar extinction coefficient (UV absorptive activities) | Compound | % Inhibition of metal ion-induced lipid peroxidation [2] | % Inhibition of hydroxy radicals (hydroxyl radical [3]) | % Inhibition of lipid peroxidation [4] | % Inhibition of UV-induced lipid peroxidation [5]
42% | 290 nm | 3,500 | Cc1ncc(CO)c(CNC(CO)C(=O)O)c1O (stereo not shown) [Synthesis Example 18] | 26% | 43% | 44% | 
29% |  |  | O=C(O)C(CO)NCc1ccccc1O (stereo not shown) [Synthesis Example 2] | 41% | 44% | 26% | 59%
